# Data reported in PubChem BioAssay (NCI).
#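 Assay format: 96-well plates, 48-hour exposure. At the TGI there is no net growth.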
# Experiments:
# Experiment in all cases: DTP human tumour cell line panel, 48 h
# 786-0 renal = test system: 786-0 renal
# BT-549 breast = test system: BT-549 breast
# HCC-2998 colon = test system: HCC-2998 colon
# HCT-116 colon = test system: HCT-116 colon
# HCT-15 colon = test system: HCT-15 colon
# K-562 leukemia = test system: K-562 leukemia
# MALME-3M melanoma = test system: MALME-3M melanoma
# MDA-MB-231 breast = test system: MDA-MB-231 breast
# MDA-MB-435 = test system: MDA-MB-435
# NCI/ADR-RES ovarian = test system: NCI/ADR-RES ovarian
# OVCAR-8 ovarian = test system: OVCAR-8 ovarian
# SF-539 CNS = test system: SF-539 CNS
# SW-620 colon = test system: SW-620 colon
# TK-10 renal = test system: TK-10 renal
# UACC-62 melanoma = test system: UACC-62 melanoma
# UO-31 renal = test system: UO-31 renal
# A549 NSCLC = test system: A549 NSCLC
# M14 melanoma = test system: M14 melanoma
# PC-3 prostate = test system: PC-3 prostate
# RXF 393 renal = test system: RXF 393 renal
Structure (SMILES),TGI (786-0 renal) [µM],TGI (BT-549 breast) [µM],TGI (HCC-2998 colon) [µM],TGI (HCT-116 colon) [µM],TGI (HCT-15 colon) [µM],TGI (K-562 leukemia) [µM],TGI (MALME-3M melanoma) [µM],TGI (MDA-MB-231 breast) [µM],TGI (MDA-MB-435) [µM],TGI (NCI/ADR-RES ovarian) [µM],TGI (OVCAR-8 ovarian) [µM],TGI (SF-539 CNS) [µM],TGI (SW-620 colon) [µM],TGI (TK-10 renal) [µM],TGI (UACC-62 melanoma) [µM],TGI (UO-31 renal) [µM],TGI (A549 NSCLC) [µM],TGI (M14 melanoma) [µM],TGI (PC-3 prostate) [µM],TGI (RXF 393 renal) [µM]
COc1cc(OC)cc(-n2c(N)c(-c3nc4ccccc4s3)c3ccc([N+](=O)[O-])cc3c2=O)c1,> 100,> 100,> 100,> 100,> 100,> 100,> 100,> 100,> 100,> 100,> 100,37.5,> 100,38.8,> 100,> 100,,,,
CN(C)Cc1cc(C(=O)/C=C/c2ccc(Br)cc2)cc(CN(C)C)c1O,19,,27.8,19.9,25.3,10.8,34.6,12.1,37.9,> 100,20.8,31.9,16,27.4,,9.04,26.2,22.1,10.2,17.1
CN(C)/N=C1\C=C2CC[C@H](O[Si](C)(C)C(C)(C)C)[C@@]2(C)CC1,31.9,,30.6,,33,35.9,30.8,30.3,32,34.5,33.3,42.4,31.9,34.6,30.4,29.8,34.8,33,28.1,28
O=C(CSc1nnc(Cc2ccccc2)o1)Nc1ccccc1Cl,> 100,,> 100,> 100,> 100,> 100,> 100,,,,> 100,> 100,> 100,> 100,> 100,> 100,> 100,> 100,,
CCc1cccc(CC)c1Nc1nc2c(s1)C(=O)c1ccccc1C2=O,36,,35.6,31.4,98.1,> 100,31.5,41.4,31.9,,,49.1,74.6,36.6,32.3,29.2,> 100,32.8,30.2,40.3
Fc1ccc2c(c1)SC1Oc3ccccc3-c3c1c-2nn3-c1ccccc1 (centres undefined),> 100,,> 100,> 100,,> 100,> 100,,,,> 100,> 100,> 100,> 100,,> 100,> 100,,,> 100
Cc1cc(Cl)ccc1NC(=O)C(=O)Cc1ccc([N+](=O)[O-])c([N+](=O)[O-])c1CC(=O)C(=O)Nc1ccc(Cl)cc1C,> 100,,> 100,> 100,> 100,> 100,> 100,,,,> 100,> 100,> 100,> 100,> 100,> 100,> 100,> 100,,> 100
COc1cc(C(C#N)NNC(=O)Cc2ccccc2)cc(OC)c1OC (centres undefined),> 100,,,> 100,> 100,> 100,> 100,,,,> 100,> 100,> 100,> 100,> 100,> 100,> 100,> 100,,> 100
CS(=O)(=O)N1CC(CCl)c2ccc(NCCN)cc21 (centres undefined),72,,> 100,> 100,> 100,> 100,> 100,> 100,> 100,> 100,> 100,> 100,> 100,> 100,,> 100,> 100,> 100,> 100,> 100
O=C1NC(=O)[C@@H](OCC2CCCCC2)[C@@H]2OCC3OC(C(O)C3O)C12 (some centres undefined),> 100,,> 100,> 100,> 100,,> 100,> 100,> 100,> 100,> 100,> 100,> 100,> 100,> 100,,> 100,> 100,> 100,> 100
CC(=O)OCC1OC(O[C@@H]2C[C@H]3C(C)(C)[C@H](OC(C)=O)CC[C@]3(C)[C@H]3CC[C@]4(C)C(=CC[C@H]4[C@@H](C)C[C@@H](O)[C@H](O)C(C)(C)O)[C@@]32C)C(O)C(O)C1O (some centres undefined),29.9,,35.1,27.5,31.4,37.7,31.9,31.2,28,> 100,33.4,29.9,32.8,32,30.5,31.9,,36.5,30.8,
CC(C)[C@H]1CO[C@@H]2O[C@H](C)CC(=O)N21,> 100,,,> 100,> 100,> 100,> 100,,,,> 100,> 100,> 100,> 100,> 100,> 100,> 100,> 100,,> 100
C/C(=N/NC(=S)N(C)CCc1ccccn1)c1cnccn1,6.8,10.2,33.8,18,29,> 100,5.11,21.2,35.7,,0.385,28,32.2,14.8,,0.272,11.5,7.37,16.1,13.9
CC(NC1=NCCO1)c1cccs1 (centres undefined),36.6,,31.5,38.6,> 100,59.6,76.8,> 100,44.4,> 100,> 100,,> 100,> 100,37.3,92.8,> 100,35.7,,
